In paper PMC8721105, “Novel Trypanocidal Inhibitors that Block Glycosome Biogenesis by Targeting PEX3–PEX19 Interaction” (Frontiers in Cell and Developmental Biology, 2021):
“Also recorded” adds a separate entry of the source. Like-named read-outs stand apart in the source and are kept apart here.

What was measured:
[1] = ref ChemBridge, cited from earlier work; for Hacc (hydrogen bond acceptor) / Hdon (hydrogen bond donor): provided by the compound library supplier; for LogSw: supplier data
[2] = molecular target: TbPEX3–TbPEX19 interaction (Trypanosoma brucei brucei, UniProt Q383Q3); experiment: AlphaScreen TbPEX3–TbPEX19 inhibitor screening and dose response; format: binding; details: for Activity scores (robust z-scores) / Note (activity in the screen): primary AlphaScreen screen, 10 μM compound
Chain of TbPEX3–TbPEX19 interaction (Q383Q3 entry or part of it, other chains not shown): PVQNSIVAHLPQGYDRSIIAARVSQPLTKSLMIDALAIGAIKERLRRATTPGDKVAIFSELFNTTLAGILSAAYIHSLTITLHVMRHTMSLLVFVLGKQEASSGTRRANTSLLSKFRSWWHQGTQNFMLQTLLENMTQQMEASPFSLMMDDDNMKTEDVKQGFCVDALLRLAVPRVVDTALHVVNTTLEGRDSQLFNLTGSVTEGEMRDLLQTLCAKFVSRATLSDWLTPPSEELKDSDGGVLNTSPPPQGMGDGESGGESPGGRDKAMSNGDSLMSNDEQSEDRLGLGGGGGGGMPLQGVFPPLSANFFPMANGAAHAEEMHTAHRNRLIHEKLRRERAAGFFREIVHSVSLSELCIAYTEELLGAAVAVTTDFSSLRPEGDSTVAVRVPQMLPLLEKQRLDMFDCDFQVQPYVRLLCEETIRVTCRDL
Protocol: The above solutions were prepared in the reaction buffer [0.5% BSA v/v, 0.05% Tween 80 v/v, 0.2 mM DTT, PBS (pH7.4)] on the day of assay, diluting the compounds from 1 mM stocks in DMSO. Compounds were incubated with the proteins for 30 min at room temperature (RT). Five microliters of AlphaScreen Nickel-chelate acceptor beads (cat. no. 6760619C, PerkinElmer®) and AlphaScreen Glutathione donor beads (cat. no. 6765300, PerkinElmer®) were distributed to the mixture consecutively, with a 15-min interval. The complete 25-μl reaction solutions were incubated for 45 min at RT in the dark, and Alpha signals were captured with Cytation 5 plate reader (BioTek®) with the gain value set at 180. Schematic representation of the experiment setup of the high-throughput screening assays was prepared with BioRender.com.
Following initial hit selection, 10 μM of drugs were tested with GST-His (54 nM) and TbPEX19/TbPEX3 (5 nM) in smaller scale, and the level of signal was normalized (in %) and compared.

T. brucei BSF427 = experiment: T. brucei cell viability, resazurin-based assay; set-up: species or system Trypanosoma brucei
Protocol: BSF strain Lister 427 (termed hereafter as BSF427) and cell line 90-13 (stably expressing Tet repressor) were used in this study. BSF cells were grown in HMI-11 medium and maintained in logarithmic phase [below 2 × 10^6 cells/ml as described in [Kalel et al. (2019)]]. Genomically integrated stable transfections were performed with NotI-linearized plasmid constructs (pGN1-TbPEX11), which integrate into the spacer region of the ribosomal RNA repeat locus in the genome of cell line 90-13, and the clones were selected using blasticidin as described previously ([Kalel et al., 2015]). Expression of TbPEX11-GFP was confirmed with fluorescence microscopy following induction tests (data not shown) with a serial dilution of tetracycline, and minimal concentration (5 ng/ml) of tetracycline was used to achieve expression of the protein in more than 80% of the cells.
T. brucei BSF427 and compound dilutions were mixed in 1 : 1 (v/v) ratio to total volume of 200 μl, to reach final concentrations of 2 × 10^3 cells/ml and 0.19–100 μM of inhibitors, in quadruplicates in 96-well plates. Culture medium with no cells was used as negative control and cultures without presence of compounds as positive control representing normal rate of cell growth. Cells were grown at 37°C in an incubator with humidified air containing 5% CO2 for 3 days. Cell viabilities were measured quantitatively using resazurin dye, by adding 25-µl resazurin (0.1 mg/ml in HBSS) to each well, and the mixture incubated for 6 h in the incubator. Fluorescence emission was detected at 570 and 585 nm after excitation at 530 nm, and fluorescence at 570 nm was subtracted from 585 nm. The inhibition curves were fitted with normalized fluorescence signal (in percentage) against concentration of compounds in Log10 scale using GraphPad Prism, and best fit was used for EC50 estimation. Chemical structures were drawn with ChemDraw 20.0.

GST-TbPEX3d44 = experiment: NMR saturation transfer difference (STD) with GST-TbPEX3; format: binding, Trypanosoma brucei; details: for STD NMR effect with GST-TbPEX3: 10 μM protein, 300 µM ligand
Protocol: (§1) NMR saturation transfer difference (STD) experiments ([Mayer and Meyer, 1999]) were carried out on a Bruker AVIII 600-MHz spectrometer equipped with a cryoprobe and a SampleJet auto sampler. One-dimensional (1D) and STD spectra were acquired at 298 K. Compounds were dissolved in DMSO-d6 to a final concentration of 50 mM. STD experiments with GST-TbPEX3, TbPEX19-His, and GST-His were performed in PBS (pH 7.4), 10% D2O at a protein concentration of 10 μM, and a ligand concentration of 300 µM. Saturation time and interscan delay within STD experiments were set to 2 and 2.5 s, respectively.

GST-His = molecular target: T1, GST-His (Schistosoma japonicum, UniProt P08515); experiment: NMR saturation transfer difference (STD) with GST-His control; format: binding; details: 10 μM protein, 300 µM ligand
T1 construct: made in house; host or cells: E. coli BL21(DE3)
T1 sequence (P08515 whole entry): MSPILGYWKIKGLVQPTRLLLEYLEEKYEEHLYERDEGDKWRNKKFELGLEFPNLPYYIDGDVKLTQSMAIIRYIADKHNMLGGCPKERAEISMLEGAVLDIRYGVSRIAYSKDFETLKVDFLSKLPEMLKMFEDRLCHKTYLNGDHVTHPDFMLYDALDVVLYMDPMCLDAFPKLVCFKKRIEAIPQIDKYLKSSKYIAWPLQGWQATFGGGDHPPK
Protocol: as §1

[3] = Cytotoxicity test on HepG2 cells; details: human
[4] = system: T. brucei bloodstream form parasites; experiment: Immunofluorescence microscopy of glycosomal aldolase localization; format: cell-based, Trypanosoma brucei; details: 24 h treatment
Protocol: BSF 90-13 cells with genomically integrated PEX11-GFP were induced with 5 ng/ml of tetracycline and cultured overnight to initiate stable expression of PEX11-GFP. BSF427- and PEX11-GFP–expressing cells were treated for 24 h with 100 μM, 50 and 25 μM of each of the inhibitor, and DMSO was used as control. Compound-treated cultures with growth rates of about 50% compared to the DMSO control were harvested and stained for immunofluorescence and statistical analysis. Cells were fixed with 4% paraformaldehyde in PBS containing 250 mM sucrose for 20 min. Fixed cells were immobilized on adhesive slide (StarFrost®) pre-coated with 10% (v/v) of poly-L-lysine (Sigma-Aldrich®) in water after 1-h incubation at RT. Cells were permeabilized with 0.1% (v/v) Triton X-100 in PBS (pH7.4) for 15 min and blocked in buffer D [PBS supplemented with 1% (w/v) BSA and 0.25% (v/v) Tween 20] for 1 h. Anti-TbAldolase primary antibody was used at 1:500 dilution in buffer D for 1.5 h incubation. After five washes in PBS for 30 min, samples were treated with Goat anti-rabbit secondary antibody (1:200, v/v, Alexa Fluor™ 594). Samples were washed, dried, and mounted with Mowiol containing 4′,6-diamidino-2-phenylindole (DAPI). Immuno-stained cells were visualized with Zeiss Elyra microscopy. Pictures of stack 3 (of 5), rotation 1 (of 3), and phase 5 (of 5) were chosen for all control and compound-treated samples.

Structure (SMILES)	Activity scores (robust z-scores) [2]	Note (activity in the screen) [2]	Hacc (hydrogen bond acceptor) [1]	Hdon (hydrogen bond donor) [1]	LogSw [1]	also measured
O=C(Cc1cccs1)N1C[C@H](O)[C@@H](N2CCCCC2)C1 (racemic) [Compound 41601289, rac-(3S,4S)-4-piperidin-1-yl-1-(2-thienylacetyl)pyrrolidin-3-ol]	0.3122	Not active	3	1	-2.24	–
c1ccc(-c2ncc(CNCCOc3cccc4cccnc34)cn2)nc1 [Compound 1, N-[(2-pyridin-2-ylpyrimidin-5-yl)methyl]-2-(quinolin-8-yloxy)ethanamine]	–	–	6	1	-2.69	EC50 (T. brucei BSF427; BSF427, 3 days of incubation, resazurin, read-out: T. brucei toxicity (EC50)): 33 µM; EC50 (T. brucei BSF427; Trypanosoma brucei, 72 h, BSF427, 3 days of incubation, resazurin, read-out: T. brucei toxicity (EC50)): 32.7 µM; STD NMR effect with GST-TbPEX3 (GST-TbPEX3d44): significant STD effects; also recorded: strong STD signal; Target protein (NMR analysis) (GST-TbPEX3d44; protein assigned as target, GST-TbPEX3, TbPEX19-His and GST-His tested): TbPEX3; STD NMR effect with GST-His control (GST-His): not to GST-His; also recorded: not with TbPEX19 or GST; EC50 ([3]; HepG2 cells, Human cell cytotoxicity (EC50), HepG2, serial dilutions of up to 200 µM): > 200 µM; Aldolase labeling phenotype (in words) [4]: diffused pattern of aldolase labeling; IC50 [2]: 1 µM
CCNC(=O)c1cc(NC(=O)C2CCOCC2)ccc1Cl [Compound 5, N-{4-chloro-3-[(ethylamino)carbonyl]phenyl}tetrahydro-2H-pyran-4-carboxamide]	–	–	3	2	-2.58	STD NMR effect with GST-TbPEX3 (GST-TbPEX3d44): show STD signal; also recorded: consistent STD effects; Inhibition of TbPEX3–PEX19 interaction (in words) [2]: did not inhibit
CC(CCNC(=O)N1CCC(Oc2ncccn2)CC1)n1ccnc1 (centres unmarked) [Compound 6, N-[3-(1H-imidazol-1-yl)butyl]-4-(pyrimidin-2-yloxy)piperidine-1-carboxamide]	–	–	5	1	-2.34	STD NMR effect with GST-TbPEX3 (GST-TbPEX3d44): show STD signal; also recorded: consistent STD effects; Inhibition of TbPEX3–PEX19 interaction (in words) [2]: did not inhibit
COc1cc(CN2CCCN(Cc3ccccn3)CC2)cc2c1OCO2 [Compound 25282511, 1-[(7-methoxy-1,3-benzodioxol-5-yl)methyl]-4-(pyridin-2-ylmethyl)-1,4-diazepane]	–	Active, require characterization	6	0	-0.93	–
CCN(Cc1nccn1C)Cc1nccn1-c1ccc(OC)cc1 [Compound 26410952, N-{[1-(4-methoxyphenyl)-1H-imidazol-2-yl]methyl}-N-[(1-methyl-1H-imidazol-2-yl)methyl]ethanamine]	–	Active, require characterization	4	0	-3.12	–
CNC(=O)c1cccc(NC(=O)C2CCOC(C)(C)C2)c1C (centres unmarked) [Compound 31960442, 2,2-dimethyl-N-{2-methyl-3-[(methylamino)carbonyl]phenyl}tetrahydro-2H-pyran-4-carboxamide]	0.2733	Not active	3	2	-2.90	–
Cc1cc(=O)n(CCN(Cc2ccccn2)CC2CCCO2)c(=O)[nH]1 (centres unmarked) [Compound 54483906, 6-methyl-3-{2-[(pyridin-2-ylmethyl)(tetrahydrofuran-2-ylmethyl)amino]ethyl}pyrimidine-2,4(1H,3H)-dione]	–	Active, require characterization	5	1	-1.32	–
CN[C@@H]1C[C@H](N)[C@@H](O)[C@H](O[C@H]2O[C@H](CO)[C@H](O)[C@@H]3O[C@@]4(O[C@@H]23)O[C@H]([C@H](N)CO)[C@H](O)[C@H](O)[C@H]4O)[C@H]1O [Hygromycin, reference compound]	–	–	–	–	–	EC50 [3]: 16.2 µM
Cc1ccc(C(=O)Nc2ccc(S(=O)(=O)O)c3cc(S(=O)(=O)O)cc(S(=O)(=O)O)c23)cc1NC(=O)c1cccc(NC(=O)Nc2cccc(C(=O)Nc3cc(C(=O)Nc4ccc(S(=O)(=O)O)c5cc(S(=O)(=O)O)cc(S(=O)(=O)O)c45)ccc3C)c2)c1 [suramin, reference compound]	–	–	–	–	–	EC50 (T. brucei BSF427; Trypanosoma brucei, 72 h, read-out: T. brucei EC50, BSF427, 3 days of incubation, resazurin, positive control): 0.037 µM; EC50 (T. brucei BSF427; read-out: T. brucei EC50, BSF427, 3 days of incubation, resazurin, positive control): 0.0371 µM

Further lines, with some results ahead:

Activity scores (robust z-scores) [2]	Note (activity in the screen) [2]	Structure (SMILES)	Hacc (hydrogen bond acceptor) [1]	Hdon (hydrogen bond donor) [1]	LogSw [1]	also measured
2.5166	Not active	CC(C)c1cc(C2CCCN2C(=O)c2ccc(-c3nnn(C)n3)cc2)no1 (centres unmarked) [Compound 54866350, 5-(4-{[2-(5-isopropylisoxazol-3-yl)pyrrolidin-1-yl]carbonyl}phenyl)-2-methyl-2H-tetrazole]	6	0	-2.94	–
0.7988	Not active	CC(=O)Nc1ccccc1NC(=O)CN(C)Cc1cnn(C)c1 [Compound 67602110, N~1~-[2-(acetylamino)phenyl]-N~2~-methyl-N~2~-[(1-methyl-1H-pyrazol-4-yl)methyl]glycinamide]	4	2	-2.21	–
–	Active, require characterization	COCCN(Cc1cn2ccc(C)cc2n1)Cc1nccs1 [Compound 79442734, (2-methoxyethyl)[(7-methylimidazo[1,2-a]pyridin-2-yl)methyl](1,3-thiazol-2-ylmethyl)amine]	4	0	-2.43	–
1.4019	Not active	COc1cccc(N2CCN(C(=O)c3cccc(-c4cn[nH]c4)c3)CC2)c1 [Compound 92838291, 1-(3-methoxyphenyl)-4-[3-(1H-pyrazol-4-yl)benzoyl]piperazine]	3	1	-3.20	–
